This note sets out measurements from publication PMC9228535, “Antistaphylococcal Activities and ADME-Related Properties of Chlorinated Arylcarbamoylnaphthalenylcarbamates” (Pharmaceuticals, 2022).

≈ marks a conversion by molar mass, not a printed value.

The subject of one series is MRSA SA 630. In words: MBC, agar aliquot subculture method. It is filed as cell-based. Particulars: Staphylococcus aureus.
For series [1], the system named is Staphylococcus aureus ATCC 29213. In words: MBC, agar aliquot subculture method. It is filed as cell-based. Particulars: ATCC29213.
For the next series, the system named is MRSA 63718. In words: MBC, agar aliquot subculture method. It is filed as cell-based. Particulars: Staphylococcus aureus, MRSA.
For the next series, the system named is MRSA SA 3202. In words: MBC, agar aliquot subculture method. It is filed as cell-based. Particulars: Staphylococcus aureus.
For series [2], the system named is Enterococcus faecalis ATCC 29212. In words: MIC, microtitration broth method. It is filed as cell-based.
Series [3] is described as follows: Lipophilicity determination by RP-HPLC (log k, log D). It is filed as physicochemical.

In general, MBC refers to the lowest tested concentration that kills the bacteria rather than only halting them. What is called MIC is the smallest concentration in the dilution series that meets the test's criterion for growth inhibition. High values mean a less susceptible organism, low ones a more susceptible organism. As to `CCNC(=O)Oc1c(C(=O)Nc2cc(Cl)c(Cl)cc2Cl)ccc2ccccc12` [Compound 2, 2-[N-(2,4,5-Trichlorophenyl)carbamoyl]naphthalen-1-yl ethyl carbamate], the MBC against MRSA SA 630 was 0.144 µM (≈ 0.063 µg/mL); in series [1], 0.018 µM (≈ 0.00788 µg/mL); in the series on MRSA 63718, 0.286 µM (≈ 0.125 µg/mL); against MRSA SA 3202, 0.073 µM (≈ 0.032 µg/mL). Also, the “anti-enterococcal activity (in words)” value in series [2] (E. faecalis ATCC 29212) is “medium activity”. Moreover, the MIC in series [2] (Enterococcus faecalis, ATCC29212, 24 h) is 36.6 µM (≈ 16 µg/mL). Besides, the “lipophilicity (experimental log k/log D, approximate)” value in series [3] was “ca. 0.83”. For the same compound, in series [3] (RP-HPLC, MeOH 72%/acetate buffered saline pH 6.5), the “log D6.5” value came to 0.8294. Also, the “log D7.4” value in series [3] (RP-HPLC, MeOH 72%/acetate buffered saline pH 7.4) is on record as 0.8339. For the same compound, the log k in series [3] (RP-HPLC, MeOH 72%/water 28%) stood at 0.8249.
